In patent publication US20220169639A1 (priority 2018, published 2022):

Experiments:
[1] = test system: HBV (HBsAg) in HBV-infected PHH; assay: Cryopreserved primary human hepatocytes (PHH) HBV infection assay, extracellular HBsAg (CLIA); type: cell-based; details: Hepatitis B virus, Hepatocyte, 216 h, read-out: HBsAg IC50
Method: This assay is used to confirm the anti-HBV effect of the compounds in HBV PHH infection assay. Cryopreserved PHH (BioreclamationIVT, Lot YJM) was thawed at 37° C. and gently transferred into pre-warmed InVitroGRO HT medium (BioreclamationIVT, Cat. S03317). The mixture was centrifuged at 70 relative centrifugal force (RCF) for 3 minutes at RT, and the supernatant was discarded. Pre-warmed InVitroGRO CP medium (BioreclamationIVT, Cat #S03316) was added to the cell pellet to gently re-suspend cells. The cells were seeded at the density of 5.8×10^4 cells per well to collagen I coated 96-well plate (Gibco, Cat. A1142803) with the InVitroGRO CP medium. All plates were incubated at 37° C. with 5% CO2 and 85% humidity.
At 20 hours after plating, the medium was changed to PHH culture medium (Dulbecco's Modified Eagle Medium (DMEM)/F12 (1:1) (Gibco, Cat. 11320-033), 10% fetal bovine serum (Gibco Cat. 10099141), 100 U/mL penicillin, 100 μg/mL streptomycin (Gibco, Cat. 151401-122), 5 ng/mL human epidermal growth factor (Invitrogen Cat. PHG0311L), 20 ng/mL dexamethasone (Sigma, Cat. D4902) and 250 ng/mL human recombinant insulin (Gibco, Cat. 12585-014)). And the cells were incubated at 37° C. with 5% CO2 and 85% humidity for 4 hours. The medium was then changed to pre-warmed PHH culture medium containing 4% polyethylene glycol (PEG) MW8000 (Sigma, Cat. P1458-50ML) and 1% DMSO (Sigma, Cat. D2650). 5.8×10^6 genomic equivalents of HBV were added into the medium.
At 24 hours post-infection, the cells were gently washed with PBS and refreshed with PHH culture medium supplemented with 1% DMSO, and 0.25 mg/mL Matrix gel (Corning, Cat. 356237) at 200 μL per well. All plates were immediately placed in at 37° C. CO2 incubator. 24 hours later, serial dilutions of compounds made with DMSO were further diluted with the same culture medium (PHH culture medium supplemented with 1% DMSO and 0.25 mg/mL Matrix gel as described above) before they were added to the cells to reach desired final compound concentrations and 1% DMSO concentration. The medium containing the compounds were refreshed every three days.
At 9 days post-compound treatment, extracellular HBsAg level were measured with Chemiluminescence Immuno Assay (CLIA) kit (Autobio, HBsAg Quantitative CLIA). Extracellular HBV DNA was extracted by MagNA Pure 96 system (Roche) and then determined
HBsAg IC50 and HBV DNA IC50 values were derived from the dose-response curve using 4 parameter logistic curve fit method. The compounds of formula (I) have HBsAg IC50<20 μM, particularly <1 μM; and HBV DNA IC50<50 μM. Results of Cryopreserved PHH assay are given in TableBIO2.

[2] = test system: HBeAg (surrogate marker for cccDNA) in HepDES19 cells; assay: Engineered HepDES19 primary screen assay (HBeAg ELISA); type: cell-based, HBV; details: Hepatitis B virus, 120 h, HBeAg in culture supernatant, 5 days incubation, read-out: IC50 (HepDES19 primary screen assay, inhibition of extracellular HBeAg level)
Summary of the method: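 HepDES19 cells pre-induced by Tet withdrawal for 8 days, frozen, then seeded and dosed after 24 h with half-log compound dilutions (1% DMSO final). After 5 days at 37 °C, HBeAg measured by ELISA and viability by CCK-8; IC50 from 4-parameter logistic fit.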

SMILES | IC50 [1] | IC50 [2]
O=C(O)C1CC2CCC(C1)N2CCOc1cc(Br)ccc1-c1cc(=O)c2cccc(Cl)c2o1 (stereo not drawn) [Example 025, 8-[2-[5-bromo-2-(8-chloro-4-oxo-chromen-2-yl)phenoxy]ethyl]-8-azabicyclo[3.2.1]octane-3-carboxylic acid] | 7.63 µM | 0.79 µM
CS(=O)(=O)NC(=O)[C@@H]1CCN(CCOc2cc(Br)ccc2-c2cc(=O)c3cccc(Cl)c3o2)C1 [Example 064, (3R)-1-[2-[5-bromo-2-(8-chloro-4-oxo-chromen-2-yl)phenoxy]ethyl]-N-methylsulfonyl-pyrrolidine-3-carboxamide] | 6.41 µM | 0.08 µM
CS(=O)(=O)NC(=O)C1CCCN1CCOc1cc(C(F)(F)F)ccc1-c1cc(=O)c2cccc(Cl)c2o1 (stereo not drawn) [Example 073, 1-[2-[2-(8-chloro-4-oxo-chromen-2-yl)-5-(trifluoromethyl)phenoxy]ethyl]-N-methylsulfonyl-pyrrolidine-2-carboxamide] | 7.47 µM | 0.14 µM
O=C(O)CNCCCOc1cc(C(F)(F)F)ccc1-c1cc(=O)c2cccc(Cl)c2o1 [Example 125, 2-[3-[2-(8-chloro-4-oxo-chromen-2-yl)-5-(trifluoromethyl)phenoxy]propylamino]acetic acid] | 3.19 µM | 2.03 µM
O=C(O)C(=O)NCC(O)COc1cc(C(F)(F)F)ccc1-c1cc(=O)c2cccc(Cl)c2o1 (stereo not drawn) [Example 166, 2-[[3-[2-(8-chloro-4-oxo-chromen-2-yl)-5-(trifluoromethyl)phenoxy]-2-hydroxy-propyl]amino]-2-oxo-acetic acid] | 3.03 µM | 1.57 µM
COc1cc(-c2cc(=O)c3cccc(Cl)c3o2)c(OCCCN2CC[C@H](C(=O)O)C2)cc1Br [Example 017, (3S)-1-[3-[5-bromo-2-(8-chloro-4-oxo-chromen-2-yl)-4-methoxy-phenoxy]propyl]pyrrolidine-3-carboxylic acid] | 3.42 µM | 0.34 µM
O=C(O)C1CCN(CCOc2cc(Br)ccc2-c2cc(=O)c3cccc(Cl)c3o2)CC1 [Example 022, 1-[2-[5-bromo-2-(8-chloro-4-oxo-chromen-2-yl)phenoxy]ethyl]piperidine-4-carboxylic acid] | 6.8 µM | 1.31 µM
O=c1cc(-c2ccc(Br)cc2OCCN2CCS(=O)(=O)CC2)oc2c(Cl)cccc12 [Example 089, 2-[4-bromo-2-[2-(1,1-dioxo-1,4-thiazinan-4-yl)ethoxy]phenyl]-8-chloro-chromen-4-one] | 5.81 µM | 1.94 µM
O=C(O)C1CN(CCCOc2cc(Br)ccc2-c2cc(=O)c3cccc(Cl)c3o2)CCO1 (stereo not drawn) [Example 002, 4-[3-[5-bromo-2-(8-chloro-4-oxo-chromen-2-yl)phenoxy]propyl]morpholine-2-carboxylic acid] | 4.01 µM | 0.25 µM
O=c1cc(-c2ccc(Br)cc2OCCN2CCC(c3nnn[nH]3)CC2)oc2c(Cl)cccc12 [Example 087] | 7.84 µM | 5.24 µM
CS(=O)(=O)NC(=O)[C@H]1CCN(CCCOc2cc(C(F)(F)F)ccc2-c2cc(=O)c3cccc(Cl)c3o2)C1 [Example 066, (3S)-1-[3-[2-(8-chloro-4-oxo-chromen-2-yl)-5-(trifluoromethyl)phenoxy]propyl]-N-methylsulfonyl-pyrrolidine-3-carboxamide] | 9.03 µM | 2.79 µM
C[S+]([O-])C1CCN(CCOc2cc(C(F)(F)F)ccc2-c2cc(=O)c3cccc(Cl)c3o2)CC1 (stereo not drawn) [Example 093, 8-chloro-2-[2-[2-(4-methylsulfinyl-1-piperidyl)ethoxy]-4-(trifluoromethyl)phenyl]chromen-4-one] | 6.13 µM | 5.98 µM
NC(=O)NCCCOc1cc(C(F)(F)F)ccc1-c1cc(=O)c2cccc(Cl)c2o1 [Example 157, 3-[2-(8-chloro-4-oxo-chromen-2-yl)-5-(trifluoromethyl)phenoxy]propylurea] | 3.4 µM | 4.15 µM
O=C(O)C1CCCN1CCOc1cc(Br)ccc1-c1cc(=O)c2cccc(Cl)c2o1 (stereo not drawn) [Example 020, 1-[2-[5-bromo-2-(8-chloro-4-oxo-chromen-2-yl)phenoxy]ethyl]pyrrolidine-2-carboxylic acid] | 8.36 µM | 0.87 µM
O=C(O)C1CCN(CCCOc2cc(Br)ccc2-c2cc(=O)c3cccc(Cl)c3o2)C1 (stereo not drawn) [Example 001, 1-[3-[5-bromo-2-(8-chloro-4-oxo-chromen-2-yl)phenoxy]propyl]pyrrolidine-3-carboxylic acid] | 5.43 µM | 0.35 µM
O=C(O)C1CN(CCOc2cc(Br)ccc2-c2cc(=O)c3cccc(Cl)c3o2)CCO1 (stereo not drawn) [Example 023, 4-[2-[5-bromo-2-(8-chloro-4-oxo-chromen-2-yl)phenoxy]ethyl]morpholine-2-carboxylic acid] | 4.95 µM | 0.13 µM
CC(=O)N1CCN(CCOc2cc(Br)ccc2-c2cc(=O)c3cccc(Cl)c3o2)CC1 [Example 082] | 7.56 µM | 0.24 µM
O=C(O)C1CC(N2CCC(Oc3cc(Br)ccc3-c3cc(=O)c4cccc(Cl)c4o3)CC2)C1 (stereo not drawn) [Example 131] | 5.05 µM | 5.86 µM
O=C1CCCN1CCOc1cc(Br)ccc1-c1cc(=O)c2cccc(Cl)c2o1 [Example 075, 1-[2-[5-bromo-2-(8-chloro-4-oxo-chromen-2-yl)phenoxy]ethyl]pyrrolidin-2-one] | 3.57 µM | 0.11 µM
O=C(O)C1CCC(NCCCOc2cc(C(F)(F)F)ccc2-c2cc(=O)c3cccc(Cl)c3o2)C1 (stereo not drawn) [Example 007, 3-[3-[2-(8-chloro-4-oxo-chromen-2-yl)-5-(trifluoromethyl)phenoxy]propylamino]cyclopentanecarboxylic acid] | 4.95 µM | 9.5 µM
O=C(O)C(=O)NCCOc1cc(C(F)(F)F)ccc1-c1cc(=O)c2cccc(Cl)c2o1 [Example 119, 2-[2-[2-(8-chloro-4-oxo-chromen-2-yl)-5-(trifluoromethyl)phenoxy]ethylamino]-2-oxo-acetic acid] | 0.67 µM | 3.43 µM
O=C(O)[C@H]1CCN(CCOc2cc(Br)ccc2-c2cc(=O)c3c(C(F)(F)F)ccc(Cl)c3o2)C1 [Example 042, (3S)-1-[2-[5-bromo-2-[8-chloro-4-oxo-5-(trifluoromethyl)chromen-2-yl]phenoxy]ethyl]pyrrolidine-3-carboxylic acid] | 7.3 µM | 0.05 µM
CCOC(=O)C(=O)NCCOc1cc(C(F)(F)F)ccc1-c1cc(=O)c2cccc(Cl)c2o1 [Example 101, ethyl 2-[2-[2-(8-chloro-4-oxo-chromen-2-yl)-5-(trifluoromethyl)phenoxy]ethylamino]-2-oxo-acetate] | 1.41 µM | 1.08 µM
O=C(O)C(=O)NCCCOc1cc(C(F)(F)F)ccc1-c1cc(=O)c2cccc(Cl)c2o1 [Example 117] | 1.9 µM | 2.16 µM
CS(=N)(=O)C1CCN(CCOc2cc(C(F)(F)F)ccc2-c2cc(=O)c3cccc(Cl)c3o2)CC1 (stereo not drawn) [Example 094, 8-chloro-2-[2-[2-[4-(methylsulfonimidoyl)-1-piperidyl]ethoxy]-4-(trifluoromethyl)phenyl]chromen-4-one] |  | 9.79 µM
O=C(O)C(=O)NC1(COc2cc(C(F)(F)F)ccc2-c2cc(=O)c3cccc(Cl)c3o2)CC1 [Example 110, 2-[[1-[[2-(8-chloro-4-oxo-chromen-2-yl)-5-(trifluoromethyl)phenoxy]methyl]cyclopropyl]amino]-2-oxo-acetic acid] |  | 3.76 µM
O=C(O)c1cccc(CN2CCC(Oc3cc(Br)ccc3-c3cc(=O)c4cccc(Cl)c4o3)CC2)c1 [Example 128] |  | 0.27 µM
COc1cc(OCCNC(=O)C(=O)O)c(-c2cc(=O)c3cccc(Cl)c3o2)cc1OC [Example 114] |  | 0.87 µM
CS(=O)(=O)NC(=O)[C@H]1CCN(CCOc2cc(Br)ccc2-c2cc(=O)c3cccc(Cl)c3o2)C1 [Example 069] |  | 1.77 µM
CCOC(=O)NCCOc1cc(Br)ccc1-c1cc(=O)c2cccc(Cl)c2o1 [Example 106] |  | 1.1 µM
